The values below come from publication PMC6911004, “Fragment-based screening identifies molecules targeting the substrate-binding ankyrin repeat domains of tankyrase” (Scientific Reports, 2019).

Holding throughout (assay type): binding
In one assay the target is T1, TNKS2 ARC4 (488–649) (Homo sapiens, UniProt Q9H2K2).
T1 construct: The cell was filled with TNKS2 ARC4 (488–649); His6-GST (cleaved yes); made in house; host or cells: E. coli BL21-CodonPlus (DE3)-RIL
T1 sequence (Q9H2K2 488-649): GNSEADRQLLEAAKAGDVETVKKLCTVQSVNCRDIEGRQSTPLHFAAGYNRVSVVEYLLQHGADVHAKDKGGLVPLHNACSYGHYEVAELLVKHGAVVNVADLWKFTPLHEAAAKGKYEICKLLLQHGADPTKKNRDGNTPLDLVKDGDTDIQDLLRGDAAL
The assay is described as follows: Isothermal titration calorimetry (ITC). As to conditions: global analysis n = 5. Here is the method: We next used isothermal titration calorimetry (ITC) to confirm the compound 9:TNKS2 ARC4 binding affinity, titrating the fragment (5 mM, 1% DMSO) into TNKS2 ARC4 (200 μM, 1% DMSO).
An ITC200 instrument (MicroCal) was used, fitted with a twisted syringe needle, stirring at 750 rpm. All solutions were degassed using a ThermoVac before use. The reference cell was filled with buffer (200 μL, 25 mM HEPES-NaOH pH 7.5, 100 mM NaCl, 1 mM TCEP, 1% v/v DMSO). The cell was filled with TNKS2 ARC4 (488–649) (200 μL, 200 μM in identical buffer as above). 20 injections (1 × 0.5 μL, then 19 × 2 μL) of compound 9 (5 mM, 1% v/v DMSO in buffer) were performed, with 180 s between injections. Blank correction was performed by titrating compound into buffer alone (25 mM HEPES-NaOH pH 7.5, 100 mM NaCl, 1 mM TCEP, 1% v/v DMSO) using the same injection protocol as above. The first injections from each run were discarded from data analysis. Data were analysed using Origin software with a one-site binding model. Titrations were repeated n = 5. Global analysis was performed using SEDPHAT software.

The next assay addresses T2, TNKS2 ARC5 (Homo sapiens, UniProt Q9H2K2).
T2 construct: followed by TNKS2 ARC5 (1 μL, 100 μM stock); His6-GST; made in house; host or cells: E. coli
The assay is described as follows: WaterLOGSY NMR assay. The text has this:
39 hits from the DSF screen were suitable for follow-up by ligand-observed NMR methods. We re-purchased fragments and performed T2 relaxation-edited (CPMG-edited) and waterLOGSY experiments for each fragment with TNKS2 ARC5. We explored saturation transfer difference (STD) NMR, also using TNKS2 ARC5, but the assay was not sensitive enough to produce a reliable binding signal, likely due to the relatively small size of a single ARC protein (data not shown). High ligand concentrations were required to achieve sufficient signal, which in turn could lead to false-positive hits due to non-specific binding.
Using the relaxation-edited assay, we tested each fragment in three independent measurements (Fig. 2C), unless we obtained two negative results (non-binding) in the first two experiments. […] As a negative NOE for the compound-only sample could indicate aggregation, we flagged these compounds as potentially problematic. We identified 14 fragments that bound to TNKS2 ARC5 by both relaxation-edited and waterLOGSY methods (0.78% hit rate). […]
Fragments were dispensed in duplicate into a 384-well plate (250 nL, 100 mM stock in DMSO). […] Solutions were transferred to 1.7 mm NMR tubes using a Gilson liquid handling system. ^1H NMR spectra were recorded, with the DMSO signal dampened. […]

Assay [1] addresses T3, TNKS2 ARC4 central patch (L560W) (Homo sapiens, UniProt Q9H2K2, L560W).
T3 construct: TNKS2 ARC4 (488–649); His6-GST; made in house; host or cells: E. coli BL21-CodonPlus (DE3)-RIL
The assay can be described thus: WaterLOGSY NMR with mutant ARC. The text has this:
(§1) We used three previously designed TNKS2 ARC4 mutant variants[4] to explore potential binding determinants for fragment 9. A WFE591/593/598AAA triple-mutation abrogates three key residues in the “arginine cradle”; YY536/569AA truncates two tyrosine residues that form the “glycine sandwich”, and L560W introduces a bulky residue into the “central patch” that sterically clashes with the TBM peptide (see Fig. 5A,B for locations of the mutated residues). We tested binding of compound 9 to the wild-type and mutant ARCs by ligand-observed NMR, using the relaxation-edited assay (Fig. 5C, Table 4). […] Binding was impaired but not abolished for the “central patch” mutant variant (L560W).
(§2) Fragments were dispensed in duplicate into a 384-well plate (250 nL, 100 mM stock in DMSO). Wells were backfilled with DMSO (2.25 μL). Tankyrase ARC protein (47.5 μL in 25 mM HEPES-NaOH pH7.5, 100 mM NaCl, 2 mM TCEP, 10% D2O; 20 μM final protein concentration in the assay) was added to the samples containing protein; buffer only (47.5 μL) was added to the compound-only samples. Solutions were transferred to 1.7 mm NMR tubes using a Gilson liquid handling system. ^1H NMR spectra were recorded, with the DMSO signal dampened. The bulk water signal at 4.7 ppm was selectively inverted. Data were processed using Bruker Topspin 3.14[66].

Assay [2] addresses T4, TNKS2 ARC4 arginine cradle (WFE591/593/598AAA) (Homo sapiens, UniProt Q9H2K2, E598A/F593A/W591A).
T4 construct: The cell was filled with TNKS2 ARC4 (488–649); His6-GST; made in house; host or cells: E. coli
The assay is described as follows: WaterLOGSY NMR with mutant ARC.
Description: as §1, §2

For assay [3], the target named is T5, TNKS2 ARC4 aromatic glycine sandwich (YY536/569AA) (Homo sapiens, UniProt Q9H2K2, Y536A/Y569A).
T5 construct: TNKS2 ARC4 (488–649); His6-GST; made in house; host or cells: E. coli BL21-CodonPlus (DE3)-RIL
The assay can be described thus: WaterLOGSY NMR with mutant ARC.
Description: as §1, §2

At TNKS2 ARC4 (488–649) (compound 5 mM into ARC4 200 μM, 1% DMSO), `O=C(NCc1ccco1)c1ccc2nccnc2c1` [compound 9] displayed a Kd of 1200 µM. Moreover, the “ITC stoichiometry (N) compound:TNKS2 ARC4” value on TNKS2 ARC4 (488–649) was 1.1. Further, the waterLOGSY result at TNKS2 ARC5 is listed as “negative NOE signal”; in assay [1], “positive NOE”; in assay [2] it was “negative NOE”; in assay [3] it was “positive NOE”.
